Values belong to the substance of their own block, whether it stands above or below them.
What was measured:
VE-cadherin = molecular target: T1, VE-cadherin (Homo sapiens, UniProt P33151); assay: Competition ELISA: inhibition of FLAG-tagged Bbeta15-42 binding to VE-cadherin; details: for % inhibition of 15-42FLAG-binding to VE-cadherin mean ± SD: FLAG-tagged Bbeta15-42 12 μM
T1 construct: Fc (immunoglobulin Fc fusion partner); purchased R&D Systems, Minneapolis
Description: (§1) We have developed a modified ELISA working with the same principles described by others, but the purpose of the herein described ELISA is not to quantify fibrin degradation products, but to search for proteins, peptides or compounds which interfere with the binding of the Bbeta15-42 sequence and the VE-cadherin. […] Into this system one can introduce any other additional substance and measure if this substance inhibits VE-cadherin/Bbeta15-42 binding.
(§2) In detail, 96 well protein immobilizer plates (Exiqon, Vedbaek, D K) were coated with recombinant human VE-cadherin FC fusion protein (8 nM/ml; R&D Systems, Minneapolis) in PBS and were left overnight at 4° C. Plates were then washed and incubated with peptide Bβ15-42 ([…]) tagged with a FLAG-sequence (DYKDDDDK) at the C-terminus of the peptide or with a FLAG-tagged random peptide ([…]) at a concentration of 0-80 μMol. After washing, bound FLAG-tagged peptide was detected by incubation with a peroxidase-labelled anti-FLAG antibody (Sigma, St. Louis, USA) and chromogenic substrate. Optical density was determined by an ELISA plate reader set at a wavelength of 450 nm. Data represent the mean of three independent experiments, each performed in triplicates.
In a next step, we analyzed whether this ELISA can be used to screen for other peptides/compounds to compete with the binding of the Bβ15-42 sequence to VE-cadherin.
VE-cadherin was coated to the plastic surface at a concentration of 8 nM. Then indicated peptides were added at concentrations of 200 μM, NDSK or NDSK-II were added at indicated concentrations. Detection of binding of the FLAG-tagged Bbeta15-42 (12 μM) was performed as described above.

[1] = molecular target: T2, recombinant human VE-cadherin FC fusion protein (Homo sapiens, UniProt P33151); assay: ELISA: binding of FLAG-tagged peptide to coated VE-cadherin
T2 construct: Fc (immunoglobulin Fc fusion partner); purchased R&D Systems, Minneapolis
T2 sequence (P33151 with tags, fused parts or gaps limits assumed): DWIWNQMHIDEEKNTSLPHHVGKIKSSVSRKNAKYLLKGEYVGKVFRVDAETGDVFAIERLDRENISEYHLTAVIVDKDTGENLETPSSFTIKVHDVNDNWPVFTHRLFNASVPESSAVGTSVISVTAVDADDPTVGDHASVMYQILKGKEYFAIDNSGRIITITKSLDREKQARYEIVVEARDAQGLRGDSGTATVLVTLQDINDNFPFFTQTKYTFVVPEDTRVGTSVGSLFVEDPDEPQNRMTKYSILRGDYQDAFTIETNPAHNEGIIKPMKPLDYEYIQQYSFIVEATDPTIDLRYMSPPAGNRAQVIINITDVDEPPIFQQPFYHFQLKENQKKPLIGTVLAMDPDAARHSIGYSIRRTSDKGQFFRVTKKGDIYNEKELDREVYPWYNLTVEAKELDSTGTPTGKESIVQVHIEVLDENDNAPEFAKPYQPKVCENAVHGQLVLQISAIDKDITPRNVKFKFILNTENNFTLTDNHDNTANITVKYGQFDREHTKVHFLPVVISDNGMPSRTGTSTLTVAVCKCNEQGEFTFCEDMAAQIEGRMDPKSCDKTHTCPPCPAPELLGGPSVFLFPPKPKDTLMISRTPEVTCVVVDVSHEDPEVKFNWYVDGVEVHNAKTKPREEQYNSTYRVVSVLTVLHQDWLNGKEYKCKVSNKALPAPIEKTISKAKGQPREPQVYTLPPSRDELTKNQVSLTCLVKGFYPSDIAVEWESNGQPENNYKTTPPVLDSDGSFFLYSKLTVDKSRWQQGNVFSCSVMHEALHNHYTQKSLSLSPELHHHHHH
Description: as §1, §2

endothelial surfaces = details: in vitro; cited from earlier work
[2] = system: Dengue virus type 2 (DEN-2), strain P23085; assay: Treatment of dengue virus infected mice; format: in vivo, BALB/c mice; details: for IL-1 / IL-6 / TNF: serum
[3] = in vivo, ischemia/reperfusion; cited from earlier work
endothelium = details: cited from earlier work
[4] = system: Gram-negative shock, Lipopolysaccharide from E. coli, serotype 0.127:B8; assay: Gram-negative shock (LPS-induced multiple organ failure) in rats; format: in vivo, Wistar rats; set-up: Glucose / Amylase / ALT / AST / Creatinine / Urea / heart rate (mean): unit not given here; details: for mean number of fibrin thrombi within vessels: end of the experiment, acidic fuchsin-orange G stain
Procedure: Male Wistar rats weighing 230-280 g were housed in the Tierversuchsanlage (University of Düisseldorf) and fed on a standard diet with water ad libitum. All procedures were carried out in accordance with the AAALAC guidelines and Guide for the Care and Use of Laboratory Animals (Department of Health and Human Services, National Institutes of Health, Publication No. 86-23). In addition, all experiments have been approved by an ethical and research board of the University of Düisseldorf and the county. As previously described (Zacharowski et al. Crit. Care Med 2000, Zacharowski et al. Crit. Care Med 2001; 29:1599-1608), rats were anaesthetized with sodium thiopentone (120 mg/kg i.p.) and anesthesia was maintained with supplementary doses of sodium thiopentone as required.
The trachea was cannulated to facilitate respiration and rectal temperature was maintained at 37° C. with a homoeothermic blanket. […] The right jugular vein was cannulated for the administration of drugs. The bladder was also cannulated to facilitate urine flow and to prevent the possibility of the development of post-renal failure. All animals received a total fluid replacement of 1.0 ml/kg/h (0.9% sodium chloride, saline, as an i.v. infusion into the jugular vein) throughout the experiment. Upon completion of the surgical procedure, cardiovascular parameters were allowed to stabilize for 15 min and constantly recorded over 6 h. In this model of LPS-induced multiple organ failure, a period of 6 h is essential to achieve a significant rise in the serum levels of AST and ALT, while a significant rise in the serum levels of urea and creatinine can already be observed after 2 h.
Three groups were studied: Rats were subjected to sham operation: (sham). Rats were subjected to Gram-negative shock. Lipopolysaccharide from E. coli, serotype 0.127:B8 (6 mg/kg i.v.) was given over 5 min i.v., 1 h later, animals received saline (2.4 ml/kg): (LPS+saline). Rats were subjected to Gram-negative shock. Lipopolysaccharide from E. coli, serotype 0.127:B8 (6 mg/kg i.v.) was given over 5 min i.v., animals received Bβ15-42 (2.4 mg/kg): (LPS+Bβ15-42).
Six hours after the induction of Gram-negative shock, blood was collected from the catheter placed in the right carotid artery. The blood sample was centrifuged (1610×g for 3 min at room temperature) to separate plasma. The following marker enzymes were measured in the plasma as biochemical indicators of multiple organ injury/dysfunction:
Liver injury was assessed by measuring the rise in plasma levels of alanine aminotransferase (ALT, a specific marker for hepatic parenchymal injury) and aspartate aminotransferase (AST, a non-specific marker for hepatic injury).
Plasma levels of glucose and amylase were measured as indirect markers of pancreatic function and injury.
In addition, arterial pO2 was measured as indirect marker of lung function/injury. Laboratory values
Organ (lung, liver, heart and kidney) biopsies of all groups studied were taken at the end of the experiment. The biopsies were fixed in buffered formaldehyde solution (4% in phosphate buffered saline) at room temperature and sent to Vienna. […] In sham treated animals no fibrin thrombi were present.

[5] = blocking reagent 200 μM, VE-cadherin 8 nM
[6] = DEN-2 1 LD50 i.p., 4800 μg/kg i.p. twice per day, day 3 to day 8 post infection, p < 0.05 between groups
[7] = plasma, 6 h after induction of Gram-negative shock, Bβ15-42 2.4 mg/kg

T1 sequence (P33151 with tags, fused parts or gaps limits assumed): as above

% inhibition of 15-42FLAG-binding to VE-cadherin mean ± SD (VE-cadherin; blocking reagent 12 μM): 6 ± 1%
% inhibition of 15-42FLAG-binding to VE-cadherin mean ± SD (VE-cadherin; [5]): 64 ± 10%
Substance: peptide 15-26 (12mer): shorter peptide, amino acids 15-26 of the fibrin Bβ chain

% inhibition of 15-42FLAG-binding to VE-cadherin mean ± SD (VE-cadherin; blocking reagent 12 μM): 6 ± 3%
% inhibition of 15-42FLAG-binding to VE-cadherin mean ± SD (VE-cadherin; [5]): 61 ± 13%
Substance: peptide 15-30 (16mer): shorter peptide, amino acids 15-30 of the fibrin Bβ chain

% inhibition of 15-42FLAG-binding to VE-cadherin mean ± SD (VE-cadherin; blocking reagent 12 μM): 7 ± 2%
% inhibition of 15-42FLAG-binding to VE-cadherin mean ± SD (VE-cadherin; [5]): 17 ± 19%
Substance: peptide 15-37 (24mer): shorter peptide, amino acids 15-37 of the fibrin Bβ chain

% inhibition of 15-42FLAG-binding to VE-cadherin mean ± SD (VE-cadherin; blocking reagent 12 μM): 7 ± 1%
% inhibition of 15-42FLAG-binding to VE-cadherin mean ± SD (VE-cadherin; [5]): 67 ± 17%
Substance: peptide 15-34 (20mer): shorter peptide, amino acids 15-34 of the fibrin Bβ chain

% inhibition of 15-42FLAG-binding to VE-cadherin mean ± SD (VE-cadherin; blocking reagent 12 μM): 5 ± 2%
% inhibition of 15-42FLAG-binding to VE-cadherin mean ± SD (VE-cadherin; [5]): 55 ± 13%
Substance: peptide 16-42 (27mer): shorter peptide, amino acids 16-42 of the fibrin Bβ chain

Binding to VE-cadherin, optical density at 450 nm (mean) ([1]; FLAG-tagged peptide 0 μM): 0
Binding to VE-cadherin, optical density at 450 nm (mean) ([1]; FLAG-tagged peptide 0.23 μM): 0.01
Binding to VE-cadherin, optical density at 450 nm (mean) ([1]; FLAG-tagged peptide 0.7 μM): 0.02
Binding to VE-cadherin, optical density at 450 nm (mean) ([1]; FLAG-tagged peptide 2.3 μM): 0.08
Binding to VE-cadherin, optical density at 450 nm (mean) ([1]; FLAG-tagged peptide 7 μM): 0.33
Binding to VE-cadherin, optical density at 450 nm (mean) ([1]; FLAG-tagged peptide 14 μM): 0.92
Binding to VE-cadherin, optical density at 450 nm (mean) ([1]; FLAG-tagged peptide 21 μM): 1.3
Binding to VE-cadherin, optical density at 450 nm (mean) ([1]; FLAG-tagged peptide 35 μM): 1.5
Binding to VE-cadherin, optical density at 450 nm (mean) ([1]; FLAG-tagged peptide 46 μM): 1.93
Binding to VE-cadherin, optical density at 450 nm (mean) ([1]; FLAG-tagged peptide 70 μM): 2.1
Substance: 15-42 FLAG: peptide Bβ15-42 (GHRPLDKKREEAPSLRPAPPPISGGGYR) tagged with a FLAG-sequence (DYKDDDDK) at the C-terminus (GHRPLDKKREEAPSLRPAPPPISGGGYRDYKDDDDK)

Substance: GHRPLDKKREEAPSLRPAPPPISGGGYR [Bβ15-42, peptide matching amino acids 15-42 of the Bbeta chain of human fibrin]
Binding of fibrin fragments to endothelial surfaces (in words) (endothelial surfaces): blocks binding of fibrin fragments to endothelial surfaces
Binding to VE-cadherin (in words) ([1]; FLAG-tagged peptide 0-80 μMol): bound to VE-cadherin in a concentration-dependent manner
mean time to death ([2]; DEN-2 1 LD50 i.p., 4800 μg/kg i.p. twice per day, day 3 to day 8 post infection): All mice survived
Mortality (%) [2, 6]: 0%
Survival (%) [2, 6]: 100%
viremia ([2]; day 2): 1.2 ± 0.2 1 g PFU/ml
viremia ([2]; day 3^b): 2.2 ± 0.2 1 g PFU/ml
hematokrit ([2]; day 3 after challenge): 15%
viremia ([2]; day 4): 4.2 ± 0.2 1 g PFU/ml
viremia ([2]; day 5): 5.6 ± 0.4 1 g PFU/ml
hematokrit ([2]; day 5 after challenge): 33%
viremia ([2]; day 6): 6.0 ± 0.4 1 g PFU/ml
viremia ([2]; day 7): 5.9 ± 0.4 1 g PFU/ml
hematokrit ([2]; day 7 after challenge): 43%
viremia ([2]; day 28): 0 1 g PFU/ml
viremia ([2]; first line of the table, day number not given): 0 1 g PFU/ml
IL-1 ([2]; day 3 after challenge): 32 pg/mL
IL-6 ([2]; day 3 after challenge): 140 pg/mL
TNF ([2]; day 3 after challenge): 32 pg/mL
IL-1 ([2]; day 5 after challenge): 29 pg/mL
IL-6 ([2]; day 5 after challenge): 110 pg/mL
TNF ([2]; day 5 after challenge): 65 pg/mL
IL-1 ([2]; day 7 after challenge): 28 pg/mL
IL-6 ([2]; day 7 after challenge): 100 pg/mL
TNF ([2]; day 7 after challenge): 45 pg/mL
Myocardial infarct sizes (in words) [3]: reduces myocardial infarct sizes
Myocardial inflammation (in words) [3]: prevents myocardial inflammation
Inhibition of binding of flag-tagged peptide Bβ15-42 to VE-cadherin (in words) (VE-cadherin): completely inhibited
% inhibition of 15-42FLAG-binding to VE-cadherin mean ± SD (VE-cadherin; [5]): 100 ± 10%
Inflammation in vitro (in words) (endothelium): blocks inflammation in vitro
Survival ([4]; LPS 6 mg/kg i.v. plus Bβ15-42 2.4 mg/kg, n = 20 in each group, p < 0.05): 88%
heart rate (mean) ([4]; LPS + Bβ15-42, time 0 h): 436.9
mean arterial pressure (mean) ([4]; LPS + Bβ15-42, time 0 h): 128.9
heart rate (mean) ([4]; LPS + Bβ15-42, time 1 h): 484.8
mean arterial pressure (mean) ([4]; LPS + Bβ15-42, time 1 h): 83.7
heart rate (mean) ([4]; LPS + Bβ15-42, time 2 h): 484.1
mean arterial pressure (mean) ([4]; LPS + Bβ15-42, time 2 h): 102.3
heart rate (mean) ([4]; LPS + Bβ15-42, time 3 h): 509.8
mean arterial pressure (mean) ([4]; LPS + Bβ15-42, time 3 h): 103.2
heart rate (mean) ([4]; LPS + Bβ15-42, time 4 h): 516.7
mean arterial pressure (mean) ([4]; LPS + Bβ15-42, time 4 h): 101.2
heart rate (mean) ([4]; LPS + Bβ15-42, time 5 h): 533.7
mean arterial pressure (mean) ([4]; LPS + Bβ15-42, time 5 h): 97.1
heart rate (mean) ([4]; LPS + Bβ15-42, time 6 h): 541.6
mean arterial pressure (mean) ([4]; LPS + Bβ15-42, time 6 h): 107.7
Fibrin thrombi in sections stained for fibrin deposits, controls versus treated (in words) ([4]; acidic fuchsin-orange G, p<0.05): significantly elevated numbers of fibrin thrombi in controls receiving LPS alone as compared with animals treated with LPS plus Bβ15-42
pO2 ([4]; arterial, 6 h after induction of Gram-negative shock, Bβ15-42 2.4 mg/kg): 98.7
Standard H&E-stained organ sections (lung, liver, heart, kidney), comparison of groups ([4]; biopsies at the end of the experiment): no differences
mean number of fibrin thrombi within vessels ([4]; heart): 5 + 2
mean number of fibrin thrombi within vessels ([4]; kidney): 2 + 9
mean number of fibrin thrombi within vessels ([4]; liver): 78 + 37
mean number of fibrin thrombi within vessels ([4]; lung): 1 + 0
ALT [4, 7]: 261.9
AST [4, 7]: 529.0
Amylase [4, 7]: 1945.1
Creatinine [4, 7]: 0.6
Glucose [4, 7]: 45.8
Urea [4, 7]: 107.8

% inhibition of 15-42FLAG-binding to VE-cadherin mean ± SD (VE-cadherin; blocking reagent 12 μM): 7 ± 2%
% inhibition of 15-42FLAG-binding to VE-cadherin mean ± SD (VE-cadherin; [5]): 65 ± 12%
Substance: peptide 15-18 (4mer): shorter peptide, amino acids 15-18 of the fibrin Bβ chain

Source: patent US20080249006A1, “Pharmaceutical Preparation for the Treatment of Shock” (FIBREX MEDICAL RESEARCH & DEVELOPMENT GESMBH, priority 2004, published 2008)
